Assay results reported in ChEMBL document CHEMBL1201861, “Genomics of Drug Sensitity in Cancer screening data, Wellcome Trust Sanger Institute”.
Where a name gives a salt, the structure may show the parent alone.

Experiments:
[1] = tested on: KARPAS-422; test: cells; format: functional, cell-based, Homo sapiens
Description: SANGER: Inhibition of human KARPAS-422 cell growth in a cell viability assay.

[2] = tested on: CAL-33; test: cells; format: functional, cell-based, Homo sapiens;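 note: growth inhibition of CAL-33 cells, read out with a cell viability assay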
Description: SANGER: Inhibition of human CAL-33 cell growth in a cell viability assay.

[3] = tested on: EB2; test: cells; format: functional, cell-based, Homo sapiens;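 note: growth inhibition of EB2 cells, read out with a cell viability assay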
Description: SANGER: Inhibition of human EB2 cell growth in a cell viability assay.

[4] = tested on: SCC-4; test: cells; format: functional, cell-based, Homo sapiens;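 note: growth inhibition of human SCC-4 cells, read out as cell viability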
Description: SANGER: Inhibition of human SCC-4 cell growth in a cell viability assay.

[5] = tested on: SN12C; test: cells; format: functional, cell-based, Homo sapiens;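 note: growth inhibition of human SN12C cells, measured by a cell viability assay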
Description: SANGER: Inhibition of human SN12C cell growth in a cell viability assay.

[6] = tested on: BXPC-3; test: cells; format: functional, cell-based, Homo sapiens;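 note: growth inhibition of human BxPC-3 cells, read out by a cell viability assay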
Description: SANGER: Inhibition of human BxPC-3 cell growth in a cell viability assay.

[7] = tested on: GMS-10; test: cells; format: functional, cell-based, Homo sapiens;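 note: growth inhibition of GMS-10 cells, read out as cell viability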
Description: SANGER: Inhibition of human GMS-10 cell growth in a cell viability assay.

[8] = tested on: ECC4; test: cells; format: functional, cell-based, Homo sapiens;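 note: growth inhibition of ECC4 cells, read out with a cell viability assay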
Description: SANGER: Inhibition of human ECC4 cell growth in a cell viability assay.

[9] = tested on: BHY; test: cells; format: functional, cell-based, Homo sapiens
Description: SANGER: Inhibition of human BHY cell growth in a cell viability assay.

[10] = tested on: SCC-3; test: cells; format: functional, cell-based, Homo sapiens;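 note: cell viability assay measuring inhibition of SCC-3 cell growth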
Description: SANGER: Inhibition of human SCC-3 cell growth in a cell viability assay.

[11] = tested on: LN-405; test: cells; format: functional, cell-based, Homo sapiens
Description: SANGER: Inhibition of human LN-405 cell growth in a cell viability assay.

[12] = tested on: YKG-1; test: cells; format: functional, cell-based, Homo sapiens
Description: SANGER: Inhibition of human YKG-1 cell growth in a cell viability assay.

[13] = tested on: NCI-H2087; test: cells; format: functional, cell-based, Homo sapiens;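 note: growth inhibition determined with a cell viability readout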
Description: SANGER: Inhibition of human NCI-H2087 cell growth in a cell viability assay.

[14] = tested on: OVCAR-8; test: cells; format: functional, cell-based, Homo sapiens;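 note: growth inhibition of human OVCAR-8 cells, read out by a cell viability assay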
Description: SANGER: Inhibition of human OVCAR-8 cell growth in a cell viability assay.

[15] = tested on: MKN-45; test: cells; format: functional, cell-based, Homo sapiens;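 note: growth inhibition of human MKN-45 cells, measured with a cell viability assay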
Description: SANGER: Inhibition of human MKN45 cell growth in a cell viability assay.

[16] = tested on: NCI-H1437; test: cells; format: functional, cell-based, Homo sapiens;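 note: growth inhibition of human NCI-H1437 cells, read out by a cell viability assay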
Description: SANGER: Inhibition of human NCI-H1437 cell growth in a cell viability assay.

[17] = tested on: SW1088; test: cells; format: functional, cell-based, Homo sapiens;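 note: growth inhibition of human SW1088 cells, read out by a cell viability assay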
Description: SANGER: Inhibition of human SW1088 cell growth in a cell viability assay.

[18] = tested on: MDA-MB-175-VII; test: cells; format: functional, cell-based, Homo sapiens
[19] = tested on: MeWo; test: cells; format: functional, cell-based, Homo sapiens;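 note: growth inhibition of MeWo cells, determined by a cell viability readout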
Description: SANGER: Inhibition of human Mewo cell growth in a cell viability assay.

[20] = tested on: RPMI 8402; test: SANGER: Inhibition of human RPMI-8402 cell growth in a cell viability assay.; format: functional, cell-based; conditions: read-out: IC50
[21] = tested on: NCI-H292; test: cells; format: functional, cell-based, Homo sapiens;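 note: growth inhibition of NCI-H292 cells, read out with a cell viability assay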
Description: SANGER: Inhibition of human NCI-H292 cell growth in a cell viability assay.

[22] = tested on: REH; test: cells; format: functional, cell-based, Homo sapiens;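 note: growth inhibition of REH cells determined with a cell viability read-out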
Description: SANGER: Inhibition of human REH cell growth in a cell viability assay.

[23] = tested on: COLO-792; test: cells; format: functional, cell-based, Homo sapiens
Description: SANGER: Inhibition of human COLO-792 cell growth in a cell viability assay.

[24] = tested on: PF-382; test: cells; format: functional, cell-based, Homo sapiens
Description: SANGER: Inhibition of human PF-382 cell growth in a cell viability assay.

[25] = tested on: 8505C; test: cells; format: functional, cell-based, Homo sapiens
Description: SANGER: Inhibition of human 8505C cell growth in a cell viability assay.

[26] = tested on: HOP-92; test: cells; format: functional, cell-based, Homo sapiens;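 note: cell viability readout, with IC50 reflecting inhibition of HOP-92 cell growth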
Description: SANGER: Inhibition of human HOP-92 cell growth in a cell viability assay.

[27] = tested on: Ca9-22; test: cells; format: functional, cell-based, Homo sapiens;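 note: growth inhibition of Ca9-22 cells, read out with a cell viability assay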
Description: SANGER: Inhibition of human Ca9-22 cell growth in a cell viability assay.

[28] = tested on: UMC-11; test: cells; format: functional, cell-based, Homo sapiens;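 note: growth inhibition of UMC-11 cells, read out with a cell viability assay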
Description: SANGER: Inhibition of human UMC-11 cell growth in a cell viability assay.

[29] = tested on: Raji; test: cells; format: functional, cell-based, Homo sapiens;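 note: cell viability assay measuring inhibition of Raji cell growth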
Description: SANGER: Inhibition of human Raji cell growth in a cell viability assay.

[30] = tested on: 786-0; test: cells; format: functional, cell-based, Homo sapiens
Description: SANGER: Inhibition of human 786-0 cell growth in a cell viability assay.

[31] = tested on: COR-L105; test: cells; format: functional, cell-based, Homo sapiens
Description: SANGER: Inhibition of human COR-L105 cell growth in a cell viability assay.

[32] = tested on: GAMG; test: cells; format: functional, cell-based, Homo sapiens;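 note: cell growth inhibition measured by a viability assay in the GAMG human cell line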
Description: SANGER: Inhibition of human GAMG cell growth in a cell viability assay.

[33] = tested on: HCT-116; test: cells; format: functional, cell-based, Homo sapiens
Description: SANGER: Inhibition of human HCT-116 cell growth in a cell viability assay.

[34] = tested on: SK-MEL-24; test: cells; format: functional, cell-based, Homo sapiens
Description: SANGER: Inhibition of human SK-MEL-24 cell growth in a cell viability assay.

[35] = tested on: BPH-1; test: cells; format: functional, cell-based, Homo sapiens;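 note: cell viability assay measuring growth inhibition of human BPH-1 cells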
Description: SANGER: Inhibition of human BPH-1 cell growth in a cell viability assay.

[36] = tested on: NCI-H2081; test: cells; format: functional, cell-based, Homo sapiens;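 note: growth inhibition of human NCI-H2081 cells, read out with a cell viability assay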
Description: SANGER: Inhibition of human NCI-H2081 cell growth in a cell viability assay.

[37] = tested on: NCI-H2196; test: cells; format: functional, cell-based, Homo sapiens;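 note: cell viability assay used as the readout of growth inhibition in NCI-H2196 cells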
Description: SANGER: Inhibition of human NCI-H2196 cell growth in a cell viability assay.

[38] = tested on: SNU-387; test: cells; format: functional, cell-based, Homo sapiens
Description: SANGER: Inhibition of human SNU-387 cell growth in a cell viability assay.

[39] = tested on: HCC70; test: cells; format: functional, cell-based, Homo sapiens;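 note: cell viability assay measuring how strongly the compound suppresses proliferation of HCC70 cells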
Description: SANGER: Inhibition of human HCC70 cell growth in a cell viability assay.

[40] = tested on: SBC-5; test: cells; format: functional, cell-based, Homo sapiens;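 note: cell viability assay read-out, IC50 is the concentration that inhibits growth of the cells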
Description: SANGER: Inhibition of human SBC-5 cell growth in a cell viability assay.

[41] = tested on: NCI-H1703; test: cells; format: functional, cell-based, Homo sapiens;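 note: growth inhibition of NCI-H1703 cells, read out via a cell viability assay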
Description: SANGER: Inhibition of human NCI-H1703 cell growth in a cell viability assay.

[42] = tested on: ESS-1; test: cells; format: functional, cell-based, Homo sapiens;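 note: growth inhibition of human ESS-1 cells, read out by a cell viability assay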
Description: SANGER: Inhibition of human ESS-1 cell growth in a cell viability assay.

[43] = tested on: TE-15; test: cells; format: functional, cell-based, Homo sapiens;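 note: cell viability readout of growth inhibition in TE-15 cells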
Description: SANGER: Inhibition of human TE-15 cell growth in a cell viability assay.

[44] = tested on: HuP-T4; test: cells; format: functional, cell-based, Homo sapiens;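 note: cell viability assay measuring how much HuP-T4 cell growth is inhibited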
Description: SANGER: Inhibition of human HuP-T4 cell growth in a cell viability assay.

[45] = tested on: HPAF-II; test: cells; format: functional, cell-based, Homo sapiens;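 note: growth inhibition of HPAF-II cells, read out with a cell viability assay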
Description: SANGER: Inhibition of human HPAF-II cell growth in a cell viability assay.

With `COC1=CC(c2cc3ccccc3[nH]2)=N/C1=C\c1[nH]c(C)cc1C` [OBATOCLAX MESYLATE] the IC50 ([1]; Homo sapiens, KARPAS-422) was 0.166 µM, the IC50 ([2]; Homo sapiens, CAL-33) was 0.508 µM and the IC50 ([3]; Homo sapiens, EB2) was < 0.0625 µM. For the same compound, the IC50 ([4]; Homo sapiens, SCC-4) was 2.14 µM, the IC50 ([5]; Homo sapiens, SN12C) was 0.886 µM and the IC50 ([6]; Homo sapiens, BXPC-3) was 0.0746 µM. For the same compound, the IC50 ([7]; Homo sapiens, GMS-10) was 2.58 µM, the IC50 ([8]; Homo sapiens, ECC4) was 5.09 µM and the IC50 ([9]; Homo sapiens, BHY) was < 0.0625 µM. The IC50 ([10]; Homo sapiens, SCC-3) was 0.446 µM, the IC50 ([11]; Homo sapiens, LN-405) was 1.39 µM and the IC50 ([12]; Homo sapiens, YKG-1) was 0.163 µM. For the same compound, the IC50 ([13]; Homo sapiens, NCI-H2087) was 0.13 µM, the IC50 ([14]; Homo sapiens, OVCAR-8) was 0.0311 µM and the IC50 ([15]; Homo sapiens, MKN-45) was 1.99 µM. It also gave an IC50 ([16]; Homo sapiens, NCI-H1437) of 0.408 µM, an IC50 ([17]; Homo sapiens, SW1088) of 2.78 µM and an IC50 ([18]; Homo sapiens, MDA-MB-175-VII) of 1.69 µM. For the same compound, the IC50 ([19]; Homo sapiens, MeWo) was 4.96 µM, the IC50 ([20]; Homo sapiens, RPMI 8402) was 0.0186 µM and the IC50 ([21]; Homo sapiens, NCI-H292) was 0.176 µM. For the same compound, the IC50 ([22]; Homo sapiens, REH) was 0.0464 µM, the IC50 ([23]; Homo sapiens, COLO-792) was 0.132 µM and the IC50 ([24]; Homo sapiens, PF-382) was 0.0494 µM. For the same compound, the IC50 ([25]; Homo sapiens, 8505C) was 0.0304 µM, the IC50 ([26]; Homo sapiens, HOP-92) was 0.368 µM and the IC50 ([27]; Homo sapiens, Ca9-22) was 0.111 µM. The IC50 ([28]; Homo sapiens, UMC-11) was 1.4 µM, the IC50 ([29]; Homo sapiens, Raji) was 1.02 µM and the IC50 ([30]; Homo sapiens) was < 0.0625 µM. The IC50 ([31]; Homo sapiens, COR-L105) was 0.322 µM, the IC50 ([32]; Homo sapiens, GAMG) was 0.058 µM and the IC50 ([33]; Homo sapiens, HCT-116) was 0.088 µM. For the same compound, the IC50 ([34]; Homo sapiens, SK-MEL-24) was 0.913 µM, the IC50 ([35]; Homo sapiens, BPH-1) was 0.563 µM and the IC50 ([36]; Homo sapiens, NCI-H2081) was 0.781 µM. The IC50 ([37]; Homo sapiens, NCI-H2196) was 3.35 µM, the IC50 ([38]; Homo sapiens, SNU-387) was 0.903 µM and the IC50 ([39]; Homo sapiens, HCC70) was 1.46 µM. The IC50 ([40]; Homo sapiens, SBC-5) was 0.212 µM, the IC50 ([41]; Homo sapiens, NCI-H1703) was 0.594 µM and the IC50 ([42]; Homo sapiens, ESS-1) was 0.0725 µM. The IC50 ([43]; Homo sapiens, TE-15) was 0.203 µM, the IC50 ([44]; Homo sapiens, HuP-T4) was 0.0412 µM and the IC50 ([45]; Homo sapiens, HPAF-II) was 1.94 µM.

BLEOMYCIN was tested, and the IC50 ([1]; karpas-422) was 168 µM, the IC50 ([2]; cal-33) was 2.15 µM and the IC50 ([3]; eb2) was 0.691 µM. For the same compound, the IC50 ([4]; scc-4) was 2.43 µM, the IC50 ([5]; sn12c) was 315 µM and the IC50 ([6]; bxpc-3) was 3.81 µM. For the same compound, the IC50 ([7]; gms-10) was 2110 µM, the IC50 ([8]; ecc4) was 56.7 µM and the IC50 ([9]; bhy) was 1.83 µM. The IC50 ([10]; scc-3) was 3.21 µM, the IC50 ([11]; ln-405) was 402 µM and the IC50 ([12]; ykg-1) was 3.26 µM. It also gave an IC50 ([13]; nci-h2087) of 2.35 µM, an IC50 ([14]; ovcar-8) of 0.000476 µM and an IC50 ([15]; mkn-45) of 0.0248 µM. For the same compound, the IC50 ([16]; nci-h1437) was 0.743 µM, the IC50 ([17]; sw1088) was 818 µM and the IC50 ([18]; mda-mb-175-vii) was 1.51 µM. It also gave an IC50 ([19]; mewo) of 148 µM, an IC50 ([20]; rpmi-8402) of 30.7 µM and an IC50 ([21]; nci-h292) of 0.803 µM. It also gave an IC50 ([22]; reh) of 0.0134 µM, an IC50 ([23]; colo-792) of 26.4 µM and an IC50 ([24]; pf-382) of 0.426 µM. It also gave an IC50 ([25]; 8505c) of 1.04 µM, an IC50 ([26]; hop-92) of 9.26 µM and an IC50 ([27]; ca9-22) of 0.746 µM. The IC50 ([28]; umc-11) was 2360 µM, the IC50 ([29]; raji) was 1.85 µM and the IC50 [30] was 0.0808 µM. The IC50 ([31]; cor-l105) was 7.37 µM, the IC50 ([32]; gamg) was 0.289 µM and the IC50 ([33]; hct-116) was 2.88 µM. It also gave an IC50 ([34]; sk-mel-24) of 23.3 µM, an IC50 ([35]; bph-1) of 0.0591 µM and an IC50 ([36]; nci-h2081) of 221 µM. The IC50 ([37]; nci-h2196) was 22.8 µM, the IC50 ([38]; snu-387) was 0.925 µM and the IC50 ([39]; hcc70) was 126 µM. It also gave an IC50 ([40]; sbc-5) of 0.624 µM, an IC50 ([41]; nci-h1703) of 0.0161 µM and an IC50 ([42]; ess-1) of 0.187 µM. The IC50 ([43]; te-15) was 3.22 µM, the IC50 ([44]; hup-t4) was 1.31 µM and the IC50 ([45]; hpaf-ii) was 233 µM.
